Starred links: 1 amine or outer side, 2 acyl side, 3 side chain; linkers in the order of their positions; H or OH if unused. Positions of bridges follow the written chain, without caps; N, C: chain ends. Non-standard residues stand in square brackets, D forms with d. Residues, ends and D or L forms follow the SMILES beside them. *: point of attachment. NMeAbu(3,3-F2-piperidino) = CN[C@@H](CCN1CCCC(F)(F)C1)C(=O)O; NMePhe(4-Cl) = CN[C@@H](Cc1ccc(Cl)cc1)C(=O)O; hPhe(4-Cl) = N[C@@H](CCc1ccc(Cl)cc1)C(=O)O; Tyr(3-F) = N[C@@H](Cc1ccc(O)c(F)c1)C(=O)O; X14 = O=C([C@H](CCc1ccccc1Cl)N[*:1])[*:2]; Hyp = O=C(O)[C@@H]1C[C@@H](O)CN1; NMeF = CN[C@@H](Cc1ccccc1)C(=O)O; NMeGABA = CN(CCCC(=O)[*:2])[*:1]; NMeI = CC[C@H](C)[C@H](NC)C(=O)O; CH2CH(OH)CF3 = OC(C*)C(F)(F)F; NMeL = CN[C@@H](CC(C)C)C(=O)O; NMeV = CN[C@H](C(=O)O)C(C)C; NMeAbu = CC[C@H](NC)C(=O)O; NPentylGly = CCCCCNCC(=O)O; NMeA = CN[C@@H](C)C(=O)O; Piperidide = C1CCN(*)CC1; Abu = CC[C@H](N)C(=O)O; CH2CMe2OH = CC(C)(O)C*; Me2NCH2CH2 = CN(C)CC*; NBuGly = CCCCNCC(=O)O; Isopentyl = CC(C)CC*; NPrGly = CCCNCC(=O)O; Sar = CNCC(=O)O; tBu = CC(C)(C)*; CHF2 = FC(F)*

The first series in a line: Caco-2 membrane permeability, improved method as used in the following Examples (96-well, 20 to 24 h preincubation). The class given is in vitro ADME. The following applies: Caco-2, Caco-2. Summed up:
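Caco-2 monolayers were grown three weeks and preincubated 20–24 h at 37 °C with compound in DMEM+FaSSIF (1% DMSO) apically. The assay then used compound in FaSSIF/HBSS (1% DMSO, pH 6.0) apically and HBSS with 4% BSA (pH 7.4) basally. Basal samples were taken at 180 min for LC/MS, and Papp (cm/sec) was calculated.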
One may read the Papp A→B as the apparent permeability from the apical to the basolateral side of a cell layer. In turn, `CC[C@H](C)[C@@H]1NC(=O)[C@H](Cc2ccccc2)N(C)C(=O)CN(C)C(=O)C[C@@H](C(=O)N2CCCCC2)NC(=O)[C@H](C(C)C)N(C)C(=O)[C@H](CCc2ccc(Cl)cc2)NC(=O)[C@H](CC(C)C)N(C)C(=O)[C@H](CC(C)C)N(C)C(=O)CN(C)C(=O)[C@H]([C@@H](C)O)NC(=O)[C@H](CC(C)C)N(C)C1=O` [pd362] ([Sar][NMeF]I[NMeL]T[Sar][NMeL][NMeL][hPhe(4-Cl)][NMeV]D-Piperidide; lactam N-11) had a Papp A→B of 1 ×10⁻⁶ cm/s.

The same series, now with this note: human, Caco-2, Caco-2.
`CCCCN1CC(=O)N(C)[C@@H](C(C)C)C(=O)N[C@H](C(=O)N2CCCCC2)CC(=O)N(C)[C@@H](C)C(=O)N[C@@H](COCCN(C)C)C(=O)N(C)[C@@H](CC(C)C)C(=O)N(C)[C@@H](Cc2ccccc2)C(=O)N[C@@H](CC(C)C)C(=O)N(C)[C@@H](Cc2ccccc2)C(=O)N(C)[C@@H](CC(C)C)C(=O)N[C@@H]([C@@H](C)O)C1=O` [pd56] ([NMeA]S(Me2NCH2CH2)[NMeL][NMeF]L[NMeF][NMeL]T[NBuGly][NMeV]D-Piperidide; lactam N-11) registered a Papp A→B at 180 min of 0.12 ×10⁻⁶ cm/s.

In turn, `CC(C)C[C@H]1C(=O)N[C@@H](COC(C)(C)C)C(=O)N(C)[C@@H](Cc2ccccc2)C(=O)N(C)[C@@H](C(C)C)C(=O)N[C@H](C(=O)N2CCCCC2)CC(=O)N[C@H](C(C)C)C(=O)N(C)[C@@H](C)C(=O)N[C@@H](CCc2ccccc2Cl)C(=O)N(C)[C@@H](CC(C)C)C(=O)N[C@@H]([C@@H](C)O)C(=O)N(C)CC(=O)N1C` [pd350] ([dV][NMeA][X14][NMeL]T[Sar][NMeL]S(tBu)[NMeF][NMeV]D-Piperidide; lactam N-11) had a Papp A→B at 180 min of 1.7 ×10⁻⁶ cm/s.

In the case of `CC[C@H](C)[C@H]1C(=O)N[C@@H]([C@@H](C)O)C(=O)N(C)CC(=O)N(C)[C@@H](CC(C)C)C(=O)N[C@@H](C(=O)N2CCCCC2)CC(=O)N(C)[C@@H](C)C(=O)N[C@@H](CC(C)C)C(=O)N(C)[C@@H](CC(C)C)C(=O)N(C)[C@@H](CC(C)C)C(=O)N[C@@H](Cc2ccc(OC(F)F)cc2)C(=O)N(C)[C@@H](C)C(=O)N1C` [pd480] ([NMeA]L[NMeL][NMeL]Y(CHF2)[NMeA][NMeI]T[Sar][NMeL][dD]-Piperidide; lactam N-11), the Papp A→B at 180 min was 5 ×10⁻⁶ cm/s. Against the preceding molecule, the Papp A→B at 180 min is about 2.9-fold higher.

As for `CCCN1CC(=O)N(C)[C@@H](CC(C)C)C(=O)N[C@H](C(=O)N2CCCCC2)CC(=O)N(C)[C@@H](C)C(=O)N[C@@H](COCC(C)(C)O)C(=O)N(C)[C@@H](CC(C)C)C(=O)N(C)[C@@H](Cc2ccccc2)C(=O)N[C@@H](CC(C)C)C(=O)N(C)[C@@H](Cc2ccccc2)C(=O)N(C)[C@@H]([C@@H](C)CC)C(=O)N[C@@H]([C@@H](C)O)C1=O` [pd428] ([NMeA]S(CH2CMe2OH)[NMeL][NMeF]L[NMeF][NMeI]T[NPrGly][NMeL]D-Piperidide; lactam N-11), the Papp A→B at 180 min was 2.8 ×10⁻⁶ cm/s.

`CC(C)CCOC[C@@H]1NC(=O)[C@H](C)N(C)C(=O)C[C@@H](C(=O)N2CCCCC2)NC(=O)[C@H](CC(C)C)N(C)C(=O)CN(C)C(=O)[C@H]([C@@H](C)O)NC(=O)[C@H](CC(C)C)N(C)C(=O)[C@H](Cc2ccccc2)N(C)C(=O)[C@H](C(C)C)NC(=O)[C@H](Cc2ccccc2)N(C)C(=O)[C@H](CC(C)C)N(C)C1=O` [pd304] ([NMeA]S(Isopentyl)[NMeL][NMeF]V[NMeF][NMeL]T[Sar][NMeL]D-Piperidide; lactam N-11): the Papp A→B at 180 min worked out at 2.2 ×10⁻⁶ cm/s.

Regarding `CCO[C@@H]1C[C@H]2C(=O)N[C@H](C(=O)N3CCCCC3)CC(=O)N[C@@H](C(C)C)C(=O)NCC(=O)N(C)[C@@H](CC(C)C)C(=O)N(C)[C@@H](CC(C)C)C(=O)N(C)[C@@H](CC(C)C)C(=O)N(C)[C@@H](Cc3ccccc3)C(=O)N[C@@H]([C@@H](C)O)C(=O)N(C)[C@@H](Cc3ccccc3)C(=O)N(C)[C@@H](CC(C)C)C(=O)N2C1` [pd374] (VG[NMeL][NMeL][NMeL][NMeF]T[NMeF][NMeL][Hyp](Et)D-Piperidide; lactam N-11), the Papp A→B at 180 min worked out at 2.5 ×10⁻⁶ cm/s. The Papp A→B at 180 min values of the last two molecules are within 1.5-fold of each other.

`CCCCCN1CC(=O)N[C@@H]([C@@H](C)O)C(=O)N(C)CC(=O)N(C)[C@@H](CC(C)C)C(=O)N[C@H](C(=O)N2CCCCC2)CC(=O)N(C)[C@@H](CC)C(=O)N[C@@H](CC(C)C)C(=O)N(C)[C@@H](CC(C)C)C(=O)N(C)[C@@H](Cc2ccccc2)C(=O)N[C@@H](CC)C(=O)N(C)[C@@H](Cc2ccccc2)C1=O` [pd408] ([NMeAbu]L[NMeL][NMeF][Abu][NMeF][NPentylGly]T[Sar][NMeL]D-Piperidide; lactam N-11) yielded a Papp A→B at 180 min of 1.8 ×10⁻⁶ cm/s.

Consider `CCCCN1CC(=O)N(C)[C@@H](C(C)C)C(=O)N[C@@H](CC(C)C)C(=O)N(C)[C@@H](Cc2ccccc2)C(=O)N(C)[C@@H](CCN2CCCC(F)(F)C2)C(=O)N[C@H](C(=O)N2CCCCC2)CC(=O)N[C@H](C)C(=O)N(C)[C@@H](Cc2ccccc2)C(=O)N[C@@H](CC(C)C)C(=O)N(C)[C@@H](CC(C)C)C(=O)N[C@@H]([C@@H](C)O)C1=O` [pd388] ([dA][NMeF]L[NMeL]T[NBuGly][NMeV]L[NMeF][NMeAbu(3,3-F2-piperidino)]D-Piperidide; lactam N-11), for which the Papp A→B at 180 min was found to be 1.8 ×10⁻⁶ cm/s.

For `CC[C@H](C)[C@@H]1NC(=O)[C@H](CC(C)C)N(C)C(=O)[C@H](COCC(O)C(F)(F)F)NC(=O)[C@H](Cc2ccccc2)N(C)C(=O)CN(C)C(=O)C[C@@H](C(=O)N2CCCCC2)NC(=O)[C@H](CC(C)C)N(C)C(=O)[C@H](COC(C)(C)C)NC(=O)[C@H](CC(C)C)N(C)C(=O)[C@H](Cc2ccccc2)N(C)C(=O)CN(C)C1=O` (stereo partly drawn) [pd504] ([Sar][NMeF]S(CH2CH(OH)CF3)[NMeL]I[Sar][NMeF][NMeL]S(tBu)[NMeL]D-Piperidide; lactam N-11), the apparent permeability from apical to basolateral (Papp A→B) at 180 min was 4.1 ×10⁻⁶ cm/s.

Still in this series, the particulars now being: human, Caco-2, Caco-2 (cm/sec).
In turn, `CC[C@H](C)[C@@H]1NC(=O)[C@H](CC(C)C)N(C)C(=O)CCCN(C)C(=O)C[C@@H](C(=O)N2CCCCC2)NC(=O)[C@H](CC(C)C)N(C)C(=O)[C@H](C)N(C)C(=O)[C@H]([C@@H](C)O)NC(=O)[C@H](CC(C)C)N(C)C(=O)[C@H](Cc2ccc(O)c(F)c2)NC(=O)[C@H](CC(C)C)N(C)C(=O)[C@H](Cc2ccccc2)N(C)C1=O` [pd119] ([NMeGABA][NMeL]I[NMeF][NMeL][Tyr(3-F)][NMeL]T[NMeA][NMeL]D-Piperidide; lactam N-11) showed a Papp A→B at 180 min of 0.16 ×10⁻⁶ cm/s.

`CC(C)C[C@@H]1NC(=O)[C@H](Cc2ccccc2)N(C)C(=O)[C@H]([C@@H](C)O)NC(=O)[C@H](Cc2ccccc2)NC(=O)[C@H](Cc2ccccc2)N(C)C(=O)C[C@@H](C(=O)N2CCCCC2)NC(=O)[C@H](C)N(C)C(=O)[C@H](CC(C)C)N(C)C(=O)CN(C)C(=O)[C@H](CC(C)C)N(C)C(=O)[C@H](Cc2ccccc2)N(C)C1=O` [pd230] ([NMeF]FT[NMeF]L[NMeF][NMeL][Sar][NMeL][NMeA]D-Piperidide; lactam N-11): the Papp A→B at 180 min amounted to 0.25 ×10⁻⁶ cm/s.

`CC[C@H](C)[C@@H]1NC(=O)[C@H](Cc2ccc(Cl)cc2)N(C)C(=O)CN(C)C(=O)C[C@@H](C(=O)N2CCCCC2)NC(=O)[C@H](C(C)C)N(C)C(=O)[C@H](COC(C)(C)C)NC(=O)[C@H](CC(C)C)N(C)C(=O)[C@H](Cc2ccccc2)N(C)C(=O)CN(C)C(=O)[C@H]([C@@H](C)O)NC(=O)[C@H](CC(C)C)N(C)C1=O` [pd176] ([Sar][NMePhe(4-Cl)]I[NMeL]T[Sar][NMeF][NMeL]S(tBu)[NMeV]D-Piperidide; lactam N-11) displayed a Papp A→B at 180 min of 1.2 ×10⁻⁶ cm/s.
